# Values of other authors as cited in article PMC6329039 (Molecular Pain, 2019).
# System: STAT3
# Conditions: thermal shift assays ref 33
smiles,measurement,value
CN(CC(=O)N(Cc1ccc(C2CCCCC2)cc1)c1ccc(C(=O)O)c(O)c1)S(=O)(=O)c1c(F)c(F)c(F)c(F)c1F [BP-1–102],binding to and degradation of STAT3,specifically bind to and induce the degradation of STAT3
